The target in series [1] is T1, α-7 nicotinic acetylcholine receptor channel expressed in HEK 293 cells (Rattus norvegicus, UniProt Q05941).
T1 construct: expressed in transfected cells
Nature of the series: Ca2+-sensitive fluorescence-based FLIPR assay, α7 nicotinic ACh receptor channel function (agonist). Type of series: cell-based. Particulars: Table 1, HEK 293 cells, agonist Ca2+ flux. In short, it runs like this: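 Potency and efficacy derived from kinetic FLIPR Ca²⁺-flux fluorescence, recorded 3 min after compound addition in Hanks buffer following a 10 s baseline.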

The test system of the next series is mucosal mast cells. Particulars: Kageyama-Yahara et al. 2008; cited from earlier work.
Setting [2] is: FLIPR α7 activity rating (EC50, nM).

T1 sequence (Q05941 23-502): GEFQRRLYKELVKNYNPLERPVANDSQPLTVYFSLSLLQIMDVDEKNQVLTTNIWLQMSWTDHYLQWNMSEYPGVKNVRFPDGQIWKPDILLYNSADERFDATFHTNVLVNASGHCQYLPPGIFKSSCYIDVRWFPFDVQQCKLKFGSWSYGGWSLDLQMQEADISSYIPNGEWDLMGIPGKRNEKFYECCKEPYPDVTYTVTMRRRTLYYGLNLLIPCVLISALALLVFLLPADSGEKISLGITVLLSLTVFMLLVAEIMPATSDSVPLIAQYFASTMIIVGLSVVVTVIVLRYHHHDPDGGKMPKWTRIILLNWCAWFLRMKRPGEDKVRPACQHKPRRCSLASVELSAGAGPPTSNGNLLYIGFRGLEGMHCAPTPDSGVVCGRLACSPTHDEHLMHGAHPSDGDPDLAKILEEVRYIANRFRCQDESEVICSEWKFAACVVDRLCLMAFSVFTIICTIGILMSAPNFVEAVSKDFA

Usually melting point stands for the temperature of the solid-liquid transition. Usually EC50 stands for the concentration giving half of the maximal effect. In turn, `c1ccc(-c2cnc(NC3=NCC4(CN5CCC4CC5)O3)s2)cc1` (stereo not drawn) [Example 4, N-(5-Phenylthiazol-2-yl)-4H-1′-azaspiro[oxazole-5,3′-bicyclo[2.2.2]octan]-2-amine] gave a melting point of 187 to 189 °C. Moreover, the EC50 in series [1] (setting [2]) is below 100 nM.
For `c1ccc2[nH]c(NC3=NCC4(CN5CCC4CC5)O3)nc2c1` (stereo not drawn) [Example 8, N-(1H-benzo[d]imidazol-2-yl)-4H-1′-azaspiro[oxazole-5,3′-bicyclo[2.2.2]octan]-2-amine], in that order: 255 °C (dec.) and 100 to 1000 nM.
For `FC(F)Oc1ccc2nc(NC3=NC[C@@]4(CN5CCC4CC5)O3)sc2c1` [Example 22, (R)—N-(6-(Difluoromethoxy)benzo[d]thiazol-2-yl)-4H-1′-azaspiro[oxazole-5,3′-bicyclo[2.2.2]octan]-2-amine], in that order: 223 to 225 °C and 100 to 1000 nM.
For `FC(F)Oc1cc(NC2=NC[C@@]3(CN4CCC3CC4)O2)ncn1` [Example 144], in that order: 185 to 190 °C and below 100 nM.
Compound `c1ccc2nc(NC3=NC[C@@]4(CN5CCC4CC5)O3)cnc2c1` [Example 220] displayed a melting point of 212 to 215 °C. The same compound came in with an EC50 in series [1] (setting [2]) below 100 nM.
Take `FC(F)COc1cc(NC2=NC[C@@]3(CN4CCC3CC4)O2)ncn1` [Example 233, (R)—N-(6-(2,2-Difluoroethoxy)pyrimidin-4-yl)-4H-1′-azaspiro[oxazole-5,3′-bicyclo[2.2.2]octan]-2-amine]: the melting point lay within 83 to 88 °C. This compound also yielded an EC50 in series [1] (setting [2]) below 100 nM.
On to `COc1cccc(-c2cc(NC3=NC[C@@]4(CN5CCC4CC5)O3)ncn2)c1` [Example 238, (R)—N-(6-(3-Methoxyphenyl)pyrimidin-4-yl)-4H-1′-azaspiro[oxazole-5,3′-bicyclo[2.2.2]octan]-2-amine], for which the melting point was in the range of 80 to 85 °C. For the same compound, it took 16 nM to reach a half-maximal effect in series [1] (FLIPR α7 (EC50, nM)) (EC50). The compound further returned an EC50 in series [1] (setting [2]) below 100 nM.
`CSc1cnc(NC2=NC[C@@]3(CN4CCC3CC4)O2)cn1` [Example 250, (R)—N-(5-(Methylthio)pyrazin-2-yl)-4H-1′-azaspiro[oxazole-5,3′-bicyclo[2.2.2]octan]-2-amine] showed a melting point of 155 to 160 °C. The same compound returned an EC50 in series [1] (setting [2]) below 100 nM.
On to `COc1ccc(/C=C2\CCCN=C2c2cccnc2)c(OC)c1` [GTS-21], for which, in the series on mucosal mast cells, the “antigen-induced degranulation of mucosal mast cells” value is given as “inhibits”.

The values are drawn from patent US8309577B2, “Quinuclidine compounds as α-7 nicotinic acetylcholine receptor ligands” (Bristol-Myers Squibb Company, priority 2008, dated 2012).
